Patent publication US20230018245A1, “Skin Whitening Composition Containing Dihydro-5-Methylfuran-2(3h)-One Derivative” (Epi Biotech Co., Ltd., priority 2019, published 2023)
One block for each compound: values may come before it. No end group written: not given here.

Columns and labels:
B16 melanoma cells [1] = test: Melanogenesis inhibition upon single or combination treatment with hydroquinone (Example 3); format: cell-based
Method: Using B16 melanoma cells, melanogenesis inhibition and melanosome degradation effect were confirmed upon single or combination treatment with hydroquinone and the compound of the present invention.
B16 melanoma cells were treated alone or in combination with hydroquinone and/or a compound of the present invention for 2 hours under the following conditions.
(i) Compound 2: 1, 3, 10 μM single administration
(ii) Hydroquinone: 1, 3, 10 μM single administration
(iii) Compound 2 (1, 3, 10 μM)+Hydroquinone (5 μM)
Thereafter, α-MSH was treated at a concentration of 100 nM for 76 hours.
After 72 hours, absorbance was measured at 405 nm to quantify the amount of melanin released into the medium, and the inhibition rate was calculated and shown in FIG. 5.

B16 melanoma cells [2] = test: Cytotoxicity of hydroquinone and Compound 2 by MTT assay (Example 4); format: cell-based; details: treated alone, concentration of 10 μM or less; α-MSH 100 nM 76 hours; absorbance 590 nm; FIG. 6
Method: Using B16 melanoma cells, cytotoxicity was measured by MTT assay when hydroquinone and Compound 2 were treated alone or in combination.
200 μL of B16 melanoma cells were aliquoted in a 96-well plate to 2.7×10^3 cells/well, and then cultured at 37° C., 5% CO2 incubator for 24 hours. B16 melanoma cells were treated with hydroquinone and/or Compound 2 for 2 hours under the same conditions as in Example 3.
Thereafter, α-MSH was treated at a concentration of 100 nM for 76 hours, and absorbance was measured at 590 nm by MTT assay, and the results are shown in FIG. 6.

[3] = target: T1, tyrosinase extracted from B16 melanoma cells (Mus musculus, UniProt P11344); test: Inhibition of tyrosinase activity, L-DOPA oxidation (Example 5); format: biochemical; details: tyrosinase and L-DOPA, 37° C., 1 hour, absorbance 475 nm; vs positive control treated with tyrosinase and L-DOPA; FIG. 7
T1 construct: tyrosinase was extracted from B16 melanoma cells and used as an enzyme source; endogenous in cells; host or cells: B16 melanoma cells stimulated with alpha-MSH; cell extract
T1 sequence (P11344 19-533): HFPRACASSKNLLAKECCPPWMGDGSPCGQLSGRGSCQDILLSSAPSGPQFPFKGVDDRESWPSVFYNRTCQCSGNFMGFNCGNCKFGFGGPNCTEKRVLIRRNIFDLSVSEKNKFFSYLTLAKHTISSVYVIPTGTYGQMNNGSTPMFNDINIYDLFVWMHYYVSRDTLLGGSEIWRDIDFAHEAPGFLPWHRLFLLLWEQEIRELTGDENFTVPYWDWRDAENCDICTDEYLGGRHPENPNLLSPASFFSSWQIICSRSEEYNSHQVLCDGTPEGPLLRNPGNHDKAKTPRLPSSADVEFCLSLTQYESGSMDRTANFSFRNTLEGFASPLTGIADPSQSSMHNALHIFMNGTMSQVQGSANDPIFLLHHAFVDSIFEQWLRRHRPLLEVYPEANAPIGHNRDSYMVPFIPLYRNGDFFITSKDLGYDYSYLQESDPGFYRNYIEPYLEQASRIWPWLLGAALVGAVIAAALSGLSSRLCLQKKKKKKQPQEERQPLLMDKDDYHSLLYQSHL
Method: B16 melanoma cells were aliquoted in a 100 mm culture dish at 2×10^5 cells/dish. After 24 hours, the medium from the 100 mm culture dish was removed and treated with DMEM medium containing 10% FBS and a stimulant (α-MSH). After 48 hours, tyrosinase was extracted from B16 melanoma cells and used as an enzyme source. Using the principle that tyrosinase oxidizes L-DOPA to DOPA chrome and DOPA chrome has absorbance at 475 nm, tyrosinase and L-DOPA were incubated at 37° C. for 1 hour and absorbance was measured at 475 nm at 2 minute intervals, so that the production amount of DOPA chrome according to time was measured. The amount of changing 1 nmole of L-DOPA per minute to DOPA chrome was defined as the amount of tyrosinase activity. The tyrosinase inhibitory effect of Compound 2 was evaluated by comparing the group treated with tyrosinase and L-DOPA in combination as a positive control and the group treated with tyrosinase, L-DOPA and Compound 2 in combination.

- IC50 (B16 melanoma cells [1]; Mus musculus, B16, single treatment, based on the amount of melanogenesis in the positive control group (α-MSH 100 nM)): 7.7 µM
Compound: Oc1ccc(O)cc1 [hydroquinone, Benzene-1,4-diol]
- melanogenesis inhibition and melanosome degradation effect (B16 melanoma cells [1]; treated alone, 1, 3, 10 μM, α-MSH 100 nM, FIG. 5): dose-dependently increased
- cell viability / cytotoxicity (MTT assay) (B16 melanoma cells [2]): no cytotoxicity

Compound: α-melanocyte stimulating hormone (SYSMEHFRWGKPV; ends and bridges not checked; UniProt P01189 138-150, looked up) [α-MSH, agonist that stimulates melanogenesis; used as the stimulant / positive control]
- increase of the amount of melanin (B16 melanoma cells [1]; positive control treated with α-MSH 100 nM): 16.5 times

- inhibition of tyrosinase activity [3]: inhibited the activity of tyrosinase
Compound: OC[C@H]1O[C@@H](Oc2ccc(O)cc2)[C@H](O)[C@@H](O)[C@@H]1O [Arbutin]
